Results taken from patent publication US7407775B2, “Method for identifying Listeria monocytogenes and culture medium” (Biomerieux S.A., priority 2000, dated 2008).

Columns and labels:
Experiment in all cases: Experiment 1: esterase substrates, same chromogenic marker, fatty acids of different chain lengths
Format in all cases: cell-based
Parameters in all cases: key: —: the symbol “-” corresponds to the absence of color or intensity; 0 corresponds to no activity; 0.1 corresponds to a trace of color; 0.5 corresponds to very pale coloration; 1 corresponds to clear but low-intensity coloration; 1.5 corresponds to a degree of coloration intermediate between scores 1 and 2; 2 corresponds to clear coloration of moderate intensity; 2.5 corresponds to a degree of coloration intermediate between scores 2 and 3; 3 corresponds to intense coloration; 3.5 corresponds to a degree of coloration intermediate between scores 3 and 4; 4 corresponds to very intense coloration
Settings in all cases: 37° C., substrate 250 mg/l
Listeria seeligeri 011 = system: Listeria seeligeri 011
Procedure: (§1) A stock solution of each substrate at a concentration of 40 g/l was made up in a mixture of 40% Dimethylsulfoxide and 60% Polyoxyethylenesorbitan Monolaurate (Tween 20). An appropriate volume was added to three Columbia-type media while cooling to give a final substrate concentration of 250 mg/l. These dishes were divided into three areas and then each area was inoculated with a suspension (density=0.5 McFarland) of microorganisms taken from either the Applicant's own collection or the ATCC. The dishes were incubated for 48 hours at 37° C. The colonies which grew were examined by eye after 24 and 48 hours of incubation. Both the color and the intensity of the color of the colonies were recorded.
(§2) In Table 1 above, as in the following Tables, C represents the color of the colonies after incubation, I represents the intensity of the color, and the symbol “-” corresponds to the absence of color or intensity; finally, IT defines the incubation time. It should be noted that the intensity of the color is scored on an arbitrary scale but one which is consistent for all the biological specimens and media tested. This scale is valid for this experiment as well as all those that follow. It can be defined in the following way: • 0 corresponds to no activity, • 0.1 corresponds to a trace of color, • 0.5 corresponds to very pale coloration, • 1 corresponds to clear but low-intensity coloration, • 1.5 corresponds to a degree of coloration intermediate between scores 1 and 2, • 2 corresponds to clear coloration of moderate intensity, • 2.5 corresponds to a degree of coloration intermediate between scores 2 and 3, • 3 corresponds to intense coloration, • 3.5 corresponds to a degree of coloration intermediate between scores 3 and 4, • 4 corresponds to very intense coloration.

[1] = system: Listeria innocua ATCC 33090
Procedure: as §1, §2

Listeria ivanovii 018 = system: Listeria ivanovii 018
Procedure: as §1, §2

Listeria ivanovii 025 = system: Listeria ivanovii 025
Procedure: as §1, §2

Listeria innocua 171 = system: Listeria innocua 171
Procedure: as §1, §2

Listeria welshimeri 078 = system: Listeria welshimeri 078
Procedure: as §1, §2

Listeria innocua 166 = system: Listeria innocua 166
Procedure: as §1, §2

| Compound | C (color of the colonies) (Listeria seeligeri 011; IT 24 h) | I (intensity of the color) (Listeria seeligeri 011; IT 24 h) | C (color of the colonies) (Listeria seeligeri 011; IT 48 h) | I (intensity of the color) (Listeria seeligeri 011; IT 48 h) | C (color of the colonies) ([1]; IT 24 h) | I (intensity of the color) ([1]; IT 24 h) | C (color of the colonies) ([1]; IT 48 h) | I (intensity of the color) ([1]; IT 48 h) | C (color of the colonies) (Listeria ivanovii 018; IT 24 h) | I (intensity of the color) (Listeria ivanovii 018; IT 24 h) | C (color of the colonies) (Listeria ivanovii 018; IT 48 h) | I (intensity of the color) (Listeria ivanovii 018; IT 48 h) | C (color of the colonies) (Listeria ivanovii 025; IT 24 h) | I (intensity of the color) (Listeria ivanovii 025; IT 24 h) | C (color of the colonies) (Listeria ivanovii 025; IT 48 h) | I (intensity of the color) (Listeria ivanovii 025; IT 48 h) | C (color of the colonies) (Listeria innocua 171; IT 24 h) | I (intensity of the color) (Listeria innocua 171; IT 24 h) | C (color of the colonies) (Listeria innocua 171; IT 48 h) | I (intensity of the color) (Listeria innocua 171; IT 48 h) | also measured |
| --- | --- | --- | --- | --- | --- | --- | --- | --- | --- | --- | --- | --- | --- | --- | --- | --- | --- | --- | --- | --- | --- |
| CCCCCCCC(=O)Oc1c[nH]c2ccc(Br)cc12 [Blue-C8, 5-Bromo-3-indolyl octanoate] | — | — | gray | 0.5 | gray | 0.3 | gray | 0.5 | — | — | — | — | — | — | — | — | — | — | gray | 0.3 | C (color of the colonies) (Listeria welshimeri 078; IT 24 h): gray; I (intensity of the color) (Listeria welshimeri 078; IT 24 h): 0.5; C (color of the colonies) (Listeria welshimeri 078; IT 48 h): gray; I (intensity of the color) (Listeria welshimeri 078; IT 48 h): 1; C (color of the colonies) (Listeria innocua 166; IT 24 h): gray; I (intensity of the color) (Listeria innocua 166; IT 24 h): 0.3; C (color of the colonies) (Listeria innocua 166; IT 48 h): gray; I (intensity of the color) (Listeria innocua 166; IT 48 h): 1 |
| CCCCCCCCCC(=O)Oc1c[nH]c2ccc(Br)cc12 [Blue-C10, 5-Bromo-3-indolyl decanoate] | — | — | gray | 0.5 | — | — | gray | 0.3 | — | — | — | — | — | — | — | — | — | — | gray | 0.3 | C (color of the colonies) (Listeria welshimeri 078; IT 24 h): —; I (intensity of the color) (Listeria welshimeri 078; IT 24 h): —; C (color of the colonies) (Listeria welshimeri 078; IT 48 h): gray; I (intensity of the color) (Listeria welshimeri 078; IT 48 h): 0.5; C (color of the colonies) (Listeria innocua 166; IT 24 h): —; I (intensity of the color) (Listeria innocua 166; IT 24 h): —; C (color of the colonies) (Listeria innocua 166; IT 48 h): gray; I (intensity of the color) (Listeria innocua 166; IT 48 h): 0.5 |
| CCCCCCCCC(=O)Oc1c[nH]c2ccc(Br)cc12 [Blue-C9, 5-Bromo-3-indolyl nonanoate] | — | — | gray | 0.5 | — | — | gray | 0.3 | — | — | — | — | — | — | — | — | — | — | gray | 0.3 | C (color of the colonies) (Listeria welshimeri 078; IT 24 h): gray; I (intensity of the color) (Listeria welshimeri 078; IT 24 h): 0.5; C (color of the colonies) (Listeria welshimeri 078; IT 48 h): gray; I (intensity of the color) (Listeria welshimeri 078; IT 48 h): 1; C (color of the colonies) (Listeria innocua 166; IT 24 h): —; I (intensity of the color) (Listeria innocua 166; IT 24 h): —; C (color of the colonies) (Listeria innocua 166; IT 48 h): gray; I (intensity of the color) (Listeria innocua 166; IT 48 h): 0.5 |
